Results reported in US7198804B2, “Crude drug composition for preventing and treating gastrointestinal dyskinetic diseases” (Helixir Co., Ltd., priority 2002, dated 2007).
Counter-ions that a name gives are not always drawn.

Legend:
[1] = test system: gastrointestinal motility; test: Gastrointestinal transit (GIT) of charcoal meal in mice; type: in vivo, ICR derived mice; settings: for GIT: mean±S.E.M.
Protocol: Female ICR derived mice (Seoul National University) weighing 22±2 grams were used. All animals were maintained in a controlled environment with temperatures at 22° C.–24° C. and humidity at 60%–80% with 12 hours of light and dark cycles for at least one week prior to use. 9 groups of 8 ICR derived female mice were fasted with free access to water for 16 hours prior to testing.
For the estimation of the effect on gastrointestinal motility, 0.1 g of the brown powder of each formulation obtained in Example 1, was dissolved in 1 ml of 2% Tween 80 (Wako, Japan) and administrated orally to the mice.
Atropine sulfate (Sigma, USA) was used for the negative control in the experiment, which is known to induce smooth muscle relaxation. Mosapride citrate was administered at 20 mg/kg. Each crude drug composition of 6 formulations prepared in Example 1, was administered at 1.0 g/kg. At 60 minutes post dosing, the animals were given a suspension of 5% activated charcoal (Sigma, USA) in a 10% arabic gum (Sigma, USA) solution (0.3 ml/animal p.o.) and sacrificed 15 minutes later.
The intestine was removed and the length of the gut in cm (GL) as well as distance of charcoal movement from the pylorus to the beginning of the charcoal column in cm (CP), was measured. Gastrointestinal transit (GIT) has been calculated as below Formula 1. The mean GIT value of each group has been compared to that of the vehicle control. GIT(%)=(CP/GL)×100 Formula 1
Values were expressed as means±S.E.M. Students' t-test was used for the statistical analysis of the results of gastrointestinal transit. Probability values (p) less than 0.05 were considered to be significant.
PG202, prepared in Example 1, was administered into the mice orally at concentrations of 0.1 g/kg, 1.0 g/kg, and 5.0 g/kg. The control group was administered with the vehicle (2% Tween 80) at 10 ml/kg. At 60 minutes post dosing, the animals were given a suspension of 5% activated charcoal (Sigma, USA) in a 10% Arabic gum (Sigma, USA) solution (0.3 ml/animal p.o.) and sacrificed 15 minutes later and the gastrointestinal transit (GIT) was examined according to the Formula 1. Data have been expressed as means±S.E.M.*p<0.05.
PG202 was administrated orally at 1.0 g/kg to the test group, 2% Tween 80 (Wako, Japan) at 10 ml/kg to control group, Mosapride citrate at 20 mg/kg to positive control group, Atropine sulfate (Sigma, USA) at 100 mg/kg to negative control group. Data have been expressed as means±S.E.M.*p<0.05.
At 60 minutes post dosing, the animals were given a suspension of 5% activated charcoal (Sigma, USA) in a 10% arabic gum (Sigma, USA) solution (0.3 ml /animal p.o.) and sacrificed 15 minutes later. GIT (%) values were determined according to the Formula 1.

rodents = settings: cited from earlier work

Row | SMILES | increase of GIT compared to the control ([1]; 20 mg/kg p.o.) | GIT ([1]; 20 mg/kg p.o., positive control) | incidence of hepatocellular adenoma and thyroid follicular cell adenoma (rodents) | decrease of GIT in comparison to the control group ([1]; 100 mg/kg p.o.) | GIT ([1]; 100 mg/kg p.o., negative control)
1 | CCOc1cc(N)c(Cl)cc1C(=O)NCC1CN(Cc2ccc(F)cc2)CCO1 (centres unmarked) [mosapride citrate] | 21% | 63.7±5.2% | increased |  | 
2 | CN1[C@@H]2CC[C@H]1CC(OC(=O)C(CO)c1ccccc1)C2.CN1[C@@H]2CC[C@H]1CC(OC(=O)C(CO)c1ccccc1)C2.O=S(=O)(O)O (some centres unmarked) [Atropine, Atropine sulfate] |  |  |  | 35% | 35.4±3.4%
